Experimental data as given in PubChem BioAssay AID1963973 (Molecular Pharmacology Branch, DTP, NCI, 2024).

System: 883617-216-R-J1-PDC tumor spheroids, viability
Experiment: Anticancer human tumor 883617-216-R-J1-PDC patient-derived bladder carcinoma cell line growth inhibition [PI3K]
Conditions: spheroids with HUVEC and MSC; for IC50: curve of first compound; for viability, T/C: stronger effect = lower value
Procedure, shortened: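 Three cell types, namely tumor cells, endothelial cells and mesenchymal stem cells, formed each spheroid. Combinations with four PI3K inhibitors were screened at clinically achievable concentrations decreasing by half-log, and spheroid viability was recorded.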

[1] = second compound 0.00316 µM, first compound 0.0316 µM
[2] = second compound 0.00316 µM, first compound 0.1 µM
[3] = second compound 0.00316 µM, first compound 0.316 µM
[4] = second compound 0.00316 µM, first compound 1 µM
[5] = second compound 0.01 µM, first compound 0.0316 µM
[6] = second compound 0.01 µM, first compound 0.1 µM
[7] = second compound 0.01 µM, first compound 0.316 µM
[8] = second compound 0.01 µM, first compound 1 µM
[9] = second compound 0.0316 µM, first compound 0.0316 µM
[10] = second compound 0.0316 µM, first compound 0.1 µM
[11] = second compound 0.0316 µM, first compound 0.316 µM
[12] = second compound 0.0316 µM, first compound 1 µM
[13] = second compound 0.1 µM, first compound 0.0316 µM
[14] = second compound 0.1 µM, first compound 0.1 µM
[15] = second compound 0.1 µM, first compound 0.316 µM
[16] = second compound 0.1 µM, first compound 1 µM
[17] = second compound 0.316 µM, first compound 0.0316 µM
[18] = second compound 0.316 µM, first compound 0.1 µM
[19] = second compound 0.316 µM, first compound 0.316 µM
[20] = second compound 0.316 µM, first compound 1 µM
[21] = second compound 1 µM, first compound 0.0316 µM
[22] = second compound 1 µM, first compound 0.1 µM
[23] = second compound 1 µM, first compound 0.316 µM
[24] = second compound 1 µM, first compound 1 µM
[25] = second compound 0.00316 µM, first compound 3.16 µM
[26] = second compound 0.00316 µM, first compound 10 µM
[27] = second compound 0.01 µM, first compound 3.16 µM
[28] = second compound 0.01 µM, first compound 10 µM
[29] = second compound 0.0316 µM, first compound 3.16 µM
[30] = second compound 0.0316 µM, first compound 10 µM
[31] = second compound 0.1 µM, first compound 3.16 µM
[32] = second compound 0.1 µM, first compound 10 µM
[33] = second compound 0.316 µM, first compound 3.16 µM
[34] = second compound 0.316 µM, first compound 10 µM
[35] = second compound 1 µM, first compound 3.16 µM
[36] = second compound 1 µM, first compound 10 µM
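Also: spheroids exposed to agents for 7 days before the viability read.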

CCN1CCN(Cc2ccc(Nc3ncc(F)c(-c4cc(F)c5nc(C)n(C(C)C)c5c4)n3)nc2)CC1 + CC(Nc1ccc2c(c1)OCCn1cc(N3C(=O)OCC3C(F)F)nc1-2)C(N)=O
IC50 (second compound 0.00316 µM): 203 nM
IC50 (second compound 0.01 µM): 166 nM
IC50 (second compound 0.0316 µM): 122 nM
IC50 (second compound 0.1 µM): < 3.16 nM
IC50 (second compound 0.316 µM): < 3.16 nM
IC50 (second compound 1 µM): < 3.16 nM
viability, T/C (second compound 0.00316 µM, first compound 0.00316 µM): 86%
viability, T/C (second compound 0.00316 µM, first compound 0.01 µM): 80.7%
viability, T/C [1]: 59.5%
viability, T/C [2]: 58.4%
viability, T/C [3]: 46.2%
viability, T/C [4]: 43.8%
viability, T/C (second compound 0.01 µM, first compound 0.00316 µM): 73.8%
viability, T/C (second compound 0.01 µM, first compound 0.01 µM): 63.2%
viability, T/C [5]: 59.4%
viability, T/C [6]: 51.1%
viability, T/C [7]: 47.1%
viability, T/C [8]: 45%
viability, T/C (second compound 0.0316 µM, first compound 0.00316 µM): 57%
viability, T/C (second compound 0.0316 µM, first compound 0.01 µM): 55.4%
viability, T/C [9]: 52.6%
viability, T/C [10]: 52.6%
viability, T/C [11]: 37.5%
viability, T/C [12]: 36.3%
viability, T/C (second compound 0.1 µM, first compound 0.00316 µM): 49.3%
viability, T/C (second compound 0.1 µM, first compound 0.01 µM): 34.4%
viability, T/C [13]: 30.7%
viability, T/C [14]: 31%
viability, T/C [15]: 30.9%
viability, T/C [16]: 24.4%
viability, T/C (second compound 0.316 µM, first compound 0.00316 µM): 26.3%
viability, T/C (second compound 0.316 µM, first compound 0.01 µM): 26.8%
viability, T/C [17]: 18%
viability, T/C [18]: 19.9%
viability, T/C [19]: 15.4%
viability, T/C [20]: 17%
viability, T/C (second compound 1 µM, first compound 0.00316 µM): 13.8%
viability, T/C (second compound 1 µM, first compound 0.01 µM): 14%
viability, T/C [21]: 11.2%
viability, T/C [22]: 11.2%
viability, T/C [23]: 11.5%
viability, T/C [24]: 11.1%

Cn1ncc(Cl)c1-c1cc(C(=O)NC(CN)Cc2cccc(F)c2)sc1Cl (stereo unspecified) + CC(Nc1ccc2c(c1)OCCn1cc(N3C(=O)OCC3C(F)F)nc1-2)C(N)=O
IC50 (second compound 0.00316 µM): 285 nM
IC50 (second compound 0.01 µM): 455 nM
IC50 (second compound 0.0316 µM): 223 nM
IC50 (second compound 0.1 µM): < 31.6 nM
IC50 (second compound 0.316 µM): < 31.6 nM
IC50 (second compound 1 µM): < 31.6 nM
viability, T/C [1]: 82.8%
viability, T/C [2]: 69.4%
viability, T/C [3]: 51.2%
viability, T/C [4]: 28.9%
viability, T/C [25]: 10.6%
viability, T/C [26]: 87.3%
viability, T/C [5]: 88.9%
viability, T/C [6]: 90.2%
viability, T/C [7]: 52.5%
viability, T/C [8]: 27.2%
viability, T/C [27]: 10.3%
viability, T/C [28]: 96.1%
viability, T/C [9]: 67%
viability, T/C [10]: 63.6%
viability, T/C [11]: 43.2%
viability, T/C [12]: 21.7%
viability, T/C [29]: 8.53%
viability, T/C [30]: 64.1%
viability, T/C [13]: 43.8%
viability, T/C [14]: 44%
viability, T/C [15]: 30.7%
viability, T/C [16]: 15.2%
viability, T/C [31]: 7.17%
viability, T/C [32]: 51.4%
viability, T/C [17]: 23.5%
viability, T/C [18]: 25.2%
viability, T/C [19]: 18.6%
viability, T/C [20]: 11%
viability, T/C [33]: 5.52%
viability, T/C [34]: 21.4%
viability, T/C [21]: 13.5%
viability, T/C [22]: 12.6%
viability, T/C [23]: 11.8%
viability, T/C [24]: 8.52%
viability, T/C [35]: 5.53%
viability, T/C [36]: 13.3%

Cn1nccc1Nc1nccc(-c2ccn(C(CO)c3ccc(Cl)c(F)c3)c(=O)c2)n1 (stereo unspecified) + CC(Nc1ccc2c(c1)OCCn1cc(N3C(=O)OCC3C(F)F)nc1-2)C(N)=O
IC50 (second compound 0.00316 µM): 9310 nM
IC50 (second compound 0.01 µM): > 10000 nM
IC50 (second compound 0.0316 µM): 888 nM
IC50 (second compound 0.1 µM): < 31.6 nM
IC50 (second compound 0.316 µM): < 31.6 nM
IC50 (second compound 1 µM): < 31.6 nM
viability, T/C [1]: 83.2%
viability, T/C [2]: 67.5%
viability, T/C [3]: 80.3%
viability, T/C [4]: 75.6%
viability, T/C [25]: 80.1%
viability, T/C [26]: 48.1%
viability, T/C [5]: 85.6%
viability, T/C [6]: 74.7%
viability, T/C [7]: 77.3%
viability, T/C [8]: 64.2%
viability, T/C [27]: 58.2%
viability, T/C [28]: 50.1%
viability, T/C [9]: 66.5%
viability, T/C [10]: 65.9%
viability, T/C [11]: 67.1%
viability, T/C [12]: 48.1%
viability, T/C [29]: 35.9%
viability, T/C [30]: 34.2%
viability, T/C [13]: 44%
viability, T/C [14]: 45.1%
viability, T/C [15]: 38.1%
viability, T/C [16]: 37.1%
viability, T/C [31]: 27.6%
viability, T/C [32]: 22.4%
viability, T/C [17]: 25.1%
viability, T/C [18]: 22.8%
viability, T/C [19]: 17.2%
viability, T/C [20]: 16.2%
viability, T/C [33]: 15.2%
viability, T/C [34]: 9.06%
viability, T/C [21]: 14.9%
viability, T/C [22]: 13.6%
viability, T/C [23]: 12%
viability, T/C [24]: 11%
viability, T/C [35]: 9.01%
viability, T/C [36]: 6.11%
